Source: ChEMBL document CHEMBL3856199, “Melanoma-targeted delivery system (part 2): Synthesis, radioiodination and biological evaluation in B16F0 bearing mice” (Eur J Med Chem, 2016)

How the values were obtained:
[1] = Drug uptake in bladder of C57BL/6J mouse implanted with mouse B16F0 cells at 3.7 MBq, iv measured at 1 hr post injection by scintigraphic imaging analysis; assay type: ADME, organism-based, Urinary bladder; conditions: in vivo
[2] = Drug uptake in tumor of C57BL/6J mouse implanted with mouse B16F0 cells at 3.7 MBq, iv measured at 3 hrs post injection by gamma counting analysis; assay type: ADME, organism-based, Neoplasm; conditions: in vivo
[3] = Drug uptake in tumor of C57BL/6J mouse implanted with mouse B16F0 cells at 3.7 MBq, iv measured at 6 hrs post injection by gamma counting analysis; assay type: ADME, organism-based, Neoplasm; conditions: in vivo
[4] = Drug uptake in tumor of C57BL/6J mouse implanted with mouse B16F0 cells at 3.7 MBq, iv measured at 24 hrs post injection by gamma counting analysis; assay type: ADME, organism-based, Neoplasm; conditions: in vivo
[5] = Drug uptake in tumor of C57BL/6J mouse implanted with mouse B16F0 cells at 3.7 MBq, iv measured at 72 hrs post injection by gamma counting analysis; assay type: ADME, organism-based, Neoplasm; conditions: in vivo
[6] = Drug uptake in liver of C57BL/6J mouse implanted with mouse B16F0 cells at 3.7 MBq, iv measured at 1 hr post injection by gamma counting analysis; assay type: ADME, organism-based; conditions: in vivo
[7] = Drug uptake in liver of C57BL/6J mouse implanted with mouse B16F0 cells at 3.7 MBq, iv measured at 3 hrs post injection by gamma counting analysis; assay type: ADME, organism-based; conditions: in vivo
[8] = Drug uptake in liver of C57BL/6J mouse implanted with mouse B16F0 cells at 3.7 MBq, iv measured at 6 hrs post injection by gamma counting analysis; assay type: ADME, organism-based; conditions: in vivo
[9] = Drug uptake in kidney of C57BL/6J mouse implanted with mouse B16F0 cells at 3.7 MBq, iv measured at 3 hrs post injection by gamma counting analysis; assay type: ADME, organism-based; conditions: in vivo
[10] = Drug uptake in kidney of C57BL/6J mouse implanted with mouse B16F0 cells at 3.7 MBq, iv measured at 6 hrs post injection by gamma counting analysis; assay type: ADME, organism-based; conditions: in vivo
[11] = Drug uptake in kidney of C57BL/6J mouse implanted with mouse B16F0 cells at 3.7 MBq, iv measured at 24 hrs post injection by gamma counting analysis; assay type: ADME, organism-based; conditions: in vivo
[12] = Drug uptake in kidney of C57BL/6J mouse implanted with mouse B16F0 cells at 3.7 MBq, iv measured at 72 hrs post injection by gamma counting analysis; assay type: ADME, organism-based; conditions: in vivo
[13] = Drug uptake in stomach of C57BL/6J mouse implanted with mouse B16F0 cells at 3.7 MBq, iv measured at 1 hr post injection by gamma counting analysis; assay type: ADME, organism-based; conditions: in vivo
[14] = Drug uptake in stomach of C57BL/6J mouse implanted with mouse B16F0 cells at 3.7 MBq, iv measured at 6 hrs post injection by gamma counting analysis; assay type: ADME, organism-based; conditions: in vivo
[15] = Drug uptake in stomach of C57BL/6J mouse implanted with mouse B16F0 cells at 3.7 MBq, iv measured at 24 hrs post injection by gamma counting analysis; assay type: ADME, organism-based; conditions: in vivo
[16] = Drug uptake in intestine of C57BL/6J mouse implanted with mouse B16F0 cells at 3.7 MBq, iv measured at 1 hr post injection by gamma counting analysis; assay type: ADME, organism-based; conditions: in vivo
[17] = Drug uptake in intestine of C57BL/6J mouse implanted with mouse B16F0 cells at 3.7 MBq, iv measured at 6 hrs post injection by gamma counting analysis; assay type: ADME, organism-based; conditions: in vivo
[18] = Drug uptake in intestine of C57BL/6J mouse implanted with mouse B16F0 cells at 3.7 MBq, iv measured at 72 hrs post injection by gamma counting analysis; assay type: ADME, organism-based; conditions: in vivo
[19] = Drug uptake in thyroid/submaxillary glands of C57BL/6J mouse implanted with mouse B16F0 cells at 3.7 MBq, iv measured at 3 hrs post injection by gamma counting analysis; assay type: ADME, organism-based, Submaxillary gland/Thyroid; conditions: in vivo
[20] = Drug uptake in thyroid/submaxillary glands of C57BL/6J mouse implanted with mouse B16F0 cells at 3.7 MBq, iv measured at 72 hrs post injection by gamma counting analysis; assay type: ADME, organism-based, Submaxillary gland/Thyroid; conditions: in vivo
[21] = Drug uptake in eyes of C57BL/6J mouse implanted with mouse B16F0 cells at 3.7 MBq, iv measured at 1 hr post injection by gamma counting analysis; assay type: ADME, organism-based, Eye; conditions: in vivo
[22] = Drug uptake in eyes of C57BL/6J mouse implanted with mouse B16F0 cells at 3.7 MBq, iv measured at 3 hrs post injection by gamma counting analysis; assay type: ADME, organism-based, Eye; conditions: in vivo
[23] = Drug uptake in eyes of C57BL/6J mouse implanted with mouse B16F0 cells at 3.7 MBq, iv measured at 6 hrs post injection by gamma counting analysis; assay type: ADME, organism-based, Eye; conditions: in vivo
[24] = Drug uptake in eyes of C57BL/6J mouse implanted with mouse B16F0 cells at 3.7 MBq, iv measured at 24 hrs post injection by gamma counting analysis; assay type: ADME, organism-based, Eye; conditions: in vivo
[25] = Drug uptake in blood of C57BL/6J mouse implanted with mouse B16F0 cells at 3.7 MBq, iv measured at 6 hrs post injection by gamma counting analysis; assay type: ADME, organism-based; conditions: in vivo
[26] = Drug uptake in blood of C57BL/6J mouse implanted with mouse B16F0 cells at 3.7 MBq, iv measured at 24 hrs post injection by gamma counting analysis; assay type: ADME, organism-based; conditions: in vivo
[27] = Drug uptake in blood of C57BL/6J mouse implanted with mouse B16F0 cells at 3.7 MBq, iv measured at 72 hrs post injection by gamma counting analysis; assay type: ADME, organism-based; conditions: in vivo
[28] = Drug uptake in muscles of C57BL/6J mouse implanted with mouse B16F0 cells at 3.7 MBq, iv measured at 3 hrs post injection by gamma counting analysis; assay type: ADME, organism-based, Muscle tissue; conditions: in vivo
[29] = Drug uptake in muscles of C57BL/6J mouse implanted with mouse B16F0 cells at 3.7 MBq, iv measured at 6 hrs post injection by gamma counting analysis; assay type: ADME, organism-based, Muscle tissue; conditions: in vivo
Mus musculus [30] = assay: Toxicity in C57BL/6J mouse assessed as lethargy at 3.7 MBq, iv measured up to 72 hrs post injection; assay type: organism-based; conditions: in vivo
Mus musculus [31] = assay: Toxicity in C57BL/6J mouse assessed as rough coat at 3.7 MBq, iv measured up to 72 hrs post injection; assay type: organism-based; conditions: in vivo
Mus musculus [32] = assay: Toxicity in C57BL/6J mouse assessed as closed eyes at 3.7 MBq, iv measured up to 72 hrs post injection; assay type: organism-based; conditions: in vivo
[33] = Ratio of drug uptake in tumor to blood in C57BL/6J mouse implanted with mouse B16F0 cells at 3.7 MBq, iv measured at 3 hrs post injection; assay type: ADME, organism-based
[34] = Ratio of drug uptake in tumor to blood in C57BL/6J mouse implanted with mouse B16F0 cells at 3.7 MBq, iv measured at 24 hrs post injection; assay type: ADME, organism-based
[35] = Ratio of drug uptake in tumor to blood in C57BL/6J mouse implanted with mouse B16F0 cells at 3.7 MBq, iv measured at 72 hrs post injection; assay type: ADME, organism-based
[36] = Ratio of drug uptake in tumor to muscle in C57BL/6J mouse implanted with mouse B16F0 cells at 3.7 MBq, iv measured at 3 hrs post injection; assay type: ADME, organism-based; conditions: in vivo
[37] = Ratio of drug uptake in tumor to muscle in C57BL/6J mouse implanted with mouse B16F0 cells at 3.7 MBq, iv measured at 6 hrs post injection; assay type: ADME, organism-based; conditions: in vivo
[38] = Ratio of drug uptake in tumor to muscle in C57BL/6J mouse implanted with mouse B16F0 cells at 3.7 MBq, iv measured at 24 hrs post injection; assay type: ADME, organism-based; conditions: in vivo

CCN(CC)CCNC(=O)c1cnc2cc(NC(=O)COc3ccc(SSCCOC(=O)O[C@H]4C[C@H](n5cc([125I])c(=O)[nH]c5=O)O[C@@H]4CO)cc3)ccc2n1
Drug uptake [1]: Active | Drug uptake [2]: 2.75 % ID/g | Drug uptake [3]: 1.94 % ID/g | Drug uptake [4]: 0.72 % ID/g | Drug uptake [5]: 0.37 % ID/g | Drug uptake [6]: 1.12 % ID/g | Drug uptake [7]: 1.23 % ID/g | Drug uptake [8]: 0.47 % ID/g | Drug uptake [9]: 1.89 % ID/g | Drug uptake [10]: 0.87 % ID/g | Drug uptake [11]: 0.2 % ID/g | Drug uptake [12]: 0.32 % ID/g | Drug uptake [13]: 19.21 % ID/g | Drug uptake [14]: 6.67 % ID/g | Drug uptake [15]: 1.01 % ID/g | Drug uptake [16]: 2.51 % ID/g | Drug uptake [17]: 1.24 % ID/g | Drug uptake [18]: 0.27 % ID/g | Drug uptake [19]: 20.47 % ID/g | Drug uptake [20]: 11.36 % ID/g | Drug uptake [21]: 0.78 % ID/g | Drug uptake [22]: 0.85 % ID/g | Drug uptake [23]: 0.28 % ID/g | Drug uptake [24]: 0.09 % ID/g | Drug uptake [25]: 1 % ID/g | Drug uptake [26]: 0.13 % ID/g | Drug uptake [27]: 1.94 % ID/g | Drug uptake [28]: 0.51 % ID/g | Drug uptake [29]: 0.19 % ID/g | Activity (Mus musculus [30]): Non-Toxic | Activity (Mus musculus [31]): Non-Toxic | Activity (Mus musculus [32]): Non-Toxic | Kp at 3 h [33]: 1.07 | Kp at 24 h [34]: 5.63 | Kp at 72 h [35]: 1.12 | Ratio [36]: 5.59 | Ratio [37]: 12.3 | Ratio [38]: 18.24

O=c1[nH]c(=O)n([C@H]2C[C@H](O)[C@@H](CO)O2)cc1[125I]
Drug uptake [1]: Active | Drug uptake [2]: 1.66 % ID/g | Drug uptake [3]: 1.19 % ID/g | Drug uptake [4]: 0.46 % ID/g | Drug uptake [5]: 0.33 % ID/g | Drug uptake [6]: 1.3 % ID/g | Drug uptake [7]: 0.63 % ID/g | Drug uptake [8]: 0.24 % ID/g | Drug uptake [9]: 1.08 % ID/g | Drug uptake [10]: 0.38 % ID/g | Drug uptake [11]: 0.12 % ID/g | Drug uptake [12]: 0.08 % ID/g | Drug uptake [13]: 18.09 % ID/g | Drug uptake [14]: 4.19 % ID/g | Drug uptake [15]: 0.62 % ID/g | Drug uptake [16]: 1.62 % ID/g | Drug uptake [17]: 0.77 % ID/g | Drug uptake [18]: 0.24 % ID/g | Drug uptake [19]: 14.55 % ID/g | Drug uptake [20]: 4.17 % ID/g | Drug uptake [21]: 1.02 % ID/g | Drug uptake [22]: 0.43 % ID/g | Drug uptake [23]: 0.24 % ID/g | Drug uptake [24]: 0.04 % ID/g | Drug uptake [25]: 0.52 % ID/g | Drug uptake [26]: 0.07 % ID/g | Drug uptake [27]: 0.02 % ID/g | Drug uptake [28]: 1.06 % ID/g | Drug uptake [29]: 0.11 % ID/g | Activity (Mus musculus [30]): Non-Toxic | Activity (Mus musculus [31]): Non-Toxic | Activity (Mus musculus [32]): Non-Toxic | Kp at 3 h [33]: 1.14 | Kp at 24 h [34]: 7.24 | Kp at 72 h [35]: 14.4 | Ratio [36]: 3.75 | Ratio [37]: 10.66 | Ratio [38]: 24.35
